Laboratory results published in publication PMC6915728 (Nature Communications, 2019).
Read-outs that look alike come from different tables or passages of the source.

Columns and labels:
[1] = test system: bacterial membrane; conditions: literature mining; ref superscript numbers in the cell, listed in Supplementary Data 7 sheet References; cited from earlier work
Excerpt: Supplement 41467_2019_13618_MOESM10_ESM.xlsx, sheet "AMP details" | column: Pore formation

[2] = test system: E. coli BW25113 overexpression strains (ASKA plasmids); assay: Minimum inhibitory concentration (MIC), serial broth dilution, single-gene overexpression strains vs empty-vector control; type: cell-based, Escherichia coli; conditions: broth dilution, MS medium, 100 µM IPTG, 30 °C, 20-24 h, OD600, 3 replicates
Experimental: Minimum inhibitory concentrations (MIC) were determined with a standard serial broth dilution technique with a minor modification. Specifically, instead of a two-fold dilution series, smaller AMP concentration steps were used (typically 1.2-fold) for two reasons. […] Second, gene overexpressions caused typically only small changes in the MICs of AMPs and therefore higher resolution was required. The protocol was as follows. From a stock solution of an AMP, 12-steps serial dilution was prepared in fresh MS medium in 96-well microtiter plates. Each AMP was represented in 11 different concentrations (3 wells per AMP concentration per strain). Three wells contained only medium to check the growth in the absence of AMP. After overnight growth in MS medium supplemented with chloramphenicol, bacterial strains were diluted 20-fold into fresh MS medium and grown until the cell density reached OD600 ~1. Cells were induced by 100 µM of IPTG and incubated for 1 h at 30 °C with continuous shaking at 300 rpm. Following incubation, approximately half-million cells were inoculated into the wells of the 96-well microtiter plate with a 96‐pin replicator. We used three independent replicates for each strain and the corresponding control. Two rows in the 96-well plate contained only MS medium in order to obtain the background OD value of the medium. Plates were incubated at 30 °C with continuous shaking at 300 rpm. After 20–24 h of incubation, OD600 values were measured in a microplate reader (Biotek Synergy 2).

[3] = test system: AMP-evolved E. coli lines; conditions: ref Spohn et al 2019, cited from earlier work
Excerpt: Supplement 41467_2019_13618_MOESM13_ESM.xlsx, sheet "Figure 6 and S15" | column: A comprehensive dataset of antimicrobial susceptibility of AMP-adapted lines to antimicrobial peptides (AMPs).

GWGSFFKKAAHVGKHVGKAALTHYL [PLEU, Pleurocidin, antimicrobial peptide from Pleuronectes americanus; cluster C2]
Pore formation (whether AMP makes pores in the bacterial membrane) [1]: Yes18
Relative MIC ([2]; overexpression strain mlaD, MIC of the overexpression strain / MIC of the control strain (wild-type carrying the empty plasmid)): 1
Relative MIC ([2]; overexpression strain nikB, MIC of overexpression strain / MIC of empty-plasmid control): 0.8
Relative change in MIC (MIC of the AMP-adpated line / MIC of the ancestral strain) ([3]; AMP-adapted line BAC5_3): 1
Relative change in MIC (MIC of the AMP-adpated line / MIC of the ancestral strain) ([3]; AMP-adapted line BAC5_5): 0.8
Relative change in MIC (MIC of the AMP-adpated line / MIC of the ancestral strain) ([3]; AMP-adapted line BAC5_7): 1
Relative change in MIC (MIC of the AMP-adpated line / MIC of the ancestral strain) ([3]; AMP-adapted line BAC5_10): 1
Relative change in MIC (MIC of the AMP-adpated line / MIC of the ancestral strain) ([3]; AMP-adapted line CAP18_2): 2.1
Relative change in MIC (MIC of the AMP-adpated line / MIC of the ancestral strain) ([3]; AMP-adapted line CAP18_5): 2.5
Relative change in MIC (MIC of the AMP-adpated line / MIC of the ancestral strain) ([3]; AMP-adapted line CAP18_6): 2.3
Relative change in MIC (MIC of the AMP-adpated line / MIC of the ancestral strain) ([3]; AMP-adapted line CAP18_8): 1.7
Relative change in MIC (MIC of the AMP-adpated line / MIC of the ancestral strain) ([3]; AMP-adapted line CAP18_10): 4.3
Relative change in MIC (MIC of the AMP-adpated line / MIC of the ancestral strain) ([3]; AMP-adapted line HBD3_3): 1.3
Relative change in MIC (MIC of the AMP-adpated line / MIC of the ancestral strain) ([3]; AMP-adapted line HBD3_6): 1.7
Relative change in MIC (MIC of the AMP-adpated line / MIC of the ancestral strain) ([3]; AMP-adapted line HBD3_8): 1.7
Relative change in MIC (MIC of the AMP-adpated line / MIC of the ancestral strain) ([3]; AMP-adapted line HBD3_10): 1.3
Relative change in MIC (MIC of the AMP-adpated line / MIC of the ancestral strain) ([3]; AMP-adapted line LL37_1): 1.4
Relative change in MIC (MIC of the AMP-adpated line / MIC of the ancestral strain) ([3]; AMP-adapted line LL37_3): 1.2
Relative change in MIC (MIC of the AMP-adpated line / MIC of the ancestral strain) ([3]; AMP-adapted line LL37_6): 1.4
Relative change in MIC (MIC of the AMP-adpated line / MIC of the ancestral strain) ([3]; AMP-adapted line LL37_7): 64
Relative change in MIC (MIC of the AMP-adpated line / MIC of the ancestral strain) ([3]; AMP-adapted line LL37_10): 1.6
Relative change in MIC (MIC of the AMP-adpated line / MIC of the ancestral strain) ([3]; AMP-adapted line PEX_1): 2.3
Relative change in MIC (MIC of the AMP-adpated line / MIC of the ancestral strain) ([3]; AMP-adapted line PEX_4): 2.3
Relative change in MIC (MIC of the AMP-adpated line / MIC of the ancestral strain) ([3]; AMP-adapted line PEX_5): 1.4
Relative change in MIC (MIC of the AMP-adpated line / MIC of the ancestral strain) ([3]; AMP-adapted line PEX_6): 2.8
Relative change in MIC (MIC of the AMP-adpated line / MIC of the ancestral strain) ([3]; AMP-adapted line PEX_7): 1.7
Relative change in MIC (MIC of the AMP-adpated line / MIC of the ancestral strain) ([3]; AMP-adapted line PR39_1): 1.4
Relative change in MIC (MIC of the AMP-adpated line / MIC of the ancestral strain) ([3]; AMP-adapted line PR39_2): 1.1
Relative change in MIC (MIC of the AMP-adpated line / MIC of the ancestral strain) ([3]; AMP-adapted line PR39_5): 1
Relative change in MIC (MIC of the AMP-adpated line / MIC of the ancestral strain) ([3]; AMP-adapted line PR39_7): 0.9
Relative change in MIC (MIC of the AMP-adpated line / MIC of the ancestral strain) ([3]; AMP-adapted line PR39_10): 0.9
Relative change in MIC (MIC of the AMP-adpated line / MIC of the ancestral strain) ([3]; AMP-adapted line PROA_2): 1.6
Relative change in MIC (MIC of the AMP-adpated line / MIC of the ancestral strain) ([3]; AMP-adapted line PROA_3): 0.9
Relative change in MIC (MIC of the AMP-adpated line / MIC of the ancestral strain) ([3]; AMP-adapted line PROA_7): 1.1
Relative change in MIC (MIC of the AMP-adpated line / MIC of the ancestral strain) ([3]; AMP-adapted line PROA_8): 1.2
Relative change in MIC (MIC of the AMP-adpated line / MIC of the ancestral strain) ([3]; AMP-adapted line PROA_9): 0.9
Relative change in MIC (MIC of the AMP-adpated line / MIC of the ancestral strain) ([3]; AMP-adapted line PXB_2): 0.9
Relative change in MIC (MIC of the AMP-adpated line / MIC of the ancestral strain) ([3]; AMP-adapted line PXB_5): 1.6
Relative change in MIC (MIC of the AMP-adpated line / MIC of the ancestral strain) ([3]; AMP-adapted line PXB_6): 4.8
Relative change in MIC (MIC of the AMP-adpated line / MIC of the ancestral strain) ([3]; AMP-adapted line PXB_8): 2.1
Relative change in MIC (MIC of the AMP-adpated line / MIC of the ancestral strain) ([3]; AMP-adapted line PXB_10): 6.3
